In patent publication US9610371B2, “Anticancer therapy” (STC.UNM, priority 2005, dated 2017):
“Also recorded” adds a separate entry of the source. Where two headings read alike, the source gives them in different places. Positions of bridges follow the written chain, without caps; N, C: chain ends. Non-standard residues stand in square brackets, D forms with d. Residues, ends and D or L forms follow the SMILES beside them.

Assays:
[1] = 25 day toxicology in tumor bearing male Lewis rats; type: in vivo, Lewis rat; settings: 25 days; 12.6 MBq ^213Bi-DOTATOC group and DOTATOC control group
Method: Toxicology was assessed at 25 days in 4 groups of tumor bearing male Lewis rats (average volume […]). Rats in the first group, Cohort 1, were injected on day 1 only. Rats in second cohort were injected on days 1 and 2, while rats in the third cohort were injected on days 1, 2, and 3. Rats were injected with 2.56 μg, 0.5 μg, 0.5 μg DOTATOC, on day 1, day 2 and day 3, respectively, with a nominal activity of 3.7 MBq. Each dose was divided into 2 injections at 1 hour intervals. The rats received the following cumulative average activities per group: Cohort 1 (N=3) received 4.3±0.7 MBq, Cohort 2 (N=3) received 9.0±0.4 MBq, and Cohort 3 (N=4) received 12.6±0.3 MBq of ^213Bi-DOTATOC. Cohort 4 (N=4) was added as control group and injected twice daily with unlabelled DOTATOC on three consecutive days.
After 24 days, the animals were put into a metabolic cage to collect urine samples for creatinine clearance analysis. Creatine clearance was determined as previously described (20). After 24 hour urine collection, the animals were euthanized with halothane. For blood collection, a cardiac puncture was performed. Blood analysis consisted of hemoglobin (Hgb), hematocrit (Hct), red blood cells (RBC's), and white blood cells (WBC's) with differential, and platelets (Pt's). Additionally T4 and FSH values were assessed using the serum.
Additional groups were then designed to study the effects of the treatment on a somatostatin receptor positive tumor. The first group was designed to study the effects of treatment on large volume tumors (average volume 1720±608 mm^3). This group, Cohort 5 (N=5), received three fractionated doses of ^213Bi-DOTATOC (specific activity 7.4 MBq ^213Bi/1 μG DOTATOC) with a total average cumulative dose of 13.0±0.5 MBq of ^213Bi-DOTATOC. The last cohort, the sixth cohort (N=4), was injected with two fractionated doses, ^213Bi-DOTATOC (specific activity 7.4 MBq ^213Bi/1 μG DOTATOC) with a total average cumulative dose of 22.2±0.7 MBq of ^213Bi-DOTATOC. As described earlier, each dose was divided into 2 injections separated by a 1 hour interval. Tumor response to the treatment was assessed in all cohorts by daily tumor measurements.
Organs were harvested and immediately placed in 10% formalin for a minimum of 48 hours. Following fixation in formalin, bone samples were placed in decalcifying solution for 36 hours. Trimmed organs were sent to the TriCore Laboratories (Albuquerque, N. Mex.) where they were embedded in paraffin, sectioned, and stained with Hematoxylin and Eosin (H and E). Histopathologic evaluation was performed by a board certified veterinary pathologist (DFK) who examined the following organs of each animal: heart, lung, kidneys, testicles, spleen, pancreas, pituitary bone marrow, urinary bladder, adrenals, and two different sections of the liver.
Sections of both the right and left kidneys were examined to determine nephrotoxicity in all cohorts. Bone marrow was examined to evaluate hypoplasia and other lesions in Cohorts 3 and 4. Interstitial nephritis and bone marrow were scored as follows: 0 no lesions, 1 minimal lesions, 2 mild lesions, 3 moderate lesions, and 4 severe lesions.
For the pathology scoring, to evaluate nephrotoxicity on the 6 treatment groups, a frequency analysis was performed in StatXact-5 using the Jonckheere-Terpstra Test. For all other data, graphs and calculations were performed in SigmaStat®-3 and SigmaPlot®-9 as well as Graph Pad Prism®-4 using the t-test. For all statistical tests results were considered significant when p<0.05. Animal biodistribution and tumor volume data are expressed as the average, plus or minus the SEM.

[2] = system: Capan-2 cells; assay: CellTiter-Glo Luminescent Cell Viability Assay, gemcitabine pre-treated and non-treated Capan-2; type: cell-based, human
Method: Effects of 37 kBq and 370 kBq of ^177Lu labeled DOTATOC and DOTA on gemcitabine pre-treated Capan-2 cells and non-treated cells were evaluated using CellTiter-Glo® Luminescent Cell Viability Assay (Promega, Madison, Wis.) and Cell Death Detection ELISA^PLUS10× (Roche Applied Sciences, IN) for apoptosis. Cell viability was evaluated at 24 and 48 hours of incubations.

[3] = system: Capan-2 cells; assay: Cell Death Detection ELISA PLUS apoptosis, gemcitabine pre-treated and non-treated Capan-2; type: cell-based, human; settings: 72 hours
Method: […] Capan-2 cells and non-treated cells were evaluated using CellTiter-Glo® Luminescent Cell Viability Assay (Promega, Madison, Wis.) and Cell Death Detection ELISA^PLUS10× (Roche Applied Sciences, IN) for apoptosis. Cell viability was evaluated at 24 and 48 hours of incubations.

[4] = system: somatostatin receptor binding sites of Capan-2 cells; assay: Radioligand assay of ^177Lu-DOTATOC binding after gemcitabine pre-treatment; type: cell-based, human; settings: 4 days 1 μg/mL pre-treatment and 4 days of replenishment
Method: A radioligand assay was performed to evaluate receptor binding by the recognition ligand after pre-treatment of 4 days with 1 μg/mL gemcitabine and 4 days of replenishment.

[5] = system: Capan-2; assay: Apoptosis in Capan-2 cells, with or without gemcitabine pre-treatment; type: cell-based, human; settings: Capan-2, 1 μg/mL, FIG. 7
Source text: Alpha emitters such as ^213Bi are known to cause G2M arrest and induce apoptosis in cancer cell lines. Experiments were thus performed to evaluate radiation-induced apoptosis and the radiobiological and radiotherapeutical relevance of this mode of cell death in selection of a radionuclide for therapy.
Activation or down regulation of pro- and anti-apoptotic genes influence cancer cell viability, cancer cell sensitivity to chemotherapy and radiotherapy, and tumor development and progression. A variety of chemotherapeutic agents induce cell death via apoptosis. Gemcitabine is known to induce apoptosis primarily due to Bax overexpression, whereas Bcl-xl is known to reduce gemcitabine-induced apoptosis. In contrast, Capan-2 is […] to Fas-mediated apoptosis. […] The data is expressed as ±S.E.M. of mean apoptosis. […] But when combined with radiolabeled DOTATOC, a synergetic effect on induction of apoptosis is observed.

[6] = target: human sst2 (Homo sapiens, UniProt P30874); settings: cited from earlier work
[7] = target: human sst4 (Homo sapiens, UniProt P31391); settings: cited from earlier work
[8] = target: human sst3 (Homo sapiens, UniProt P32745); settings: cited from earlier work
[9] = target: human sst1 (Homo sapiens, UniProt P30872); settings: cited from earlier work
[10] = system: human SSTR subtypes (SSTR1-SSTR5); settings: cited from earlier work

Sequence of human sst2 (P30874 whole entry): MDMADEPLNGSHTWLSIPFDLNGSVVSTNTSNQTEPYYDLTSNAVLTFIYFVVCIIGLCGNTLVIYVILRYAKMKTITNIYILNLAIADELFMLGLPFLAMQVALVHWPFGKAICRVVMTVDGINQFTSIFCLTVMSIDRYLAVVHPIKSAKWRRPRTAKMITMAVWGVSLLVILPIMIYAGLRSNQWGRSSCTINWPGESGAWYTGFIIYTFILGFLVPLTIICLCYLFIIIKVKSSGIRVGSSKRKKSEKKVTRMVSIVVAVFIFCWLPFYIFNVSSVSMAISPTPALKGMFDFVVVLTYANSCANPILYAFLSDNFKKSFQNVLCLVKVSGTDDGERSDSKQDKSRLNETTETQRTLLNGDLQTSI
Sequence of human sst3 (P32745 whole entry): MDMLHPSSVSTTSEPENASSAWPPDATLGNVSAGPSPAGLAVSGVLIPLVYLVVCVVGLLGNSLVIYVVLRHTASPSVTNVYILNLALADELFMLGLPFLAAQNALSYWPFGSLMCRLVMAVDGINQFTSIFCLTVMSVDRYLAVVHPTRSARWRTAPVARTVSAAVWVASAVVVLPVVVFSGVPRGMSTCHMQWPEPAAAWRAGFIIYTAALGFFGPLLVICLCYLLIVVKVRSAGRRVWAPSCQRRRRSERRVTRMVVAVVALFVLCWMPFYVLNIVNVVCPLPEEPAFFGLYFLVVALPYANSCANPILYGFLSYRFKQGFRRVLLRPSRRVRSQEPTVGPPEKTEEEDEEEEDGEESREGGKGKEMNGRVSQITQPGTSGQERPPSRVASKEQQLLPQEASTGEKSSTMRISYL
Sequence of human sst1 (P30872 whole entry): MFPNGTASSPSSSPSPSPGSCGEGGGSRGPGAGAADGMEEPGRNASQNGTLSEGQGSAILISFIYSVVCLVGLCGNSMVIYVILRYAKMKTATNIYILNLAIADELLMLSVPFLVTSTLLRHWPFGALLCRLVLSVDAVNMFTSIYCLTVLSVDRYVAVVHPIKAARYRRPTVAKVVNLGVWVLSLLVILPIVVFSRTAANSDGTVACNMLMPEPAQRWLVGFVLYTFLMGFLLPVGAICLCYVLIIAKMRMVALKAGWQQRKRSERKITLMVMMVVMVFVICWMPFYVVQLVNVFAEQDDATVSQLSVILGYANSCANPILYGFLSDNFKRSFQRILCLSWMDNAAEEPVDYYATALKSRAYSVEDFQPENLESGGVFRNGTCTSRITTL
Sequence of human sst4 (P31391 whole entry): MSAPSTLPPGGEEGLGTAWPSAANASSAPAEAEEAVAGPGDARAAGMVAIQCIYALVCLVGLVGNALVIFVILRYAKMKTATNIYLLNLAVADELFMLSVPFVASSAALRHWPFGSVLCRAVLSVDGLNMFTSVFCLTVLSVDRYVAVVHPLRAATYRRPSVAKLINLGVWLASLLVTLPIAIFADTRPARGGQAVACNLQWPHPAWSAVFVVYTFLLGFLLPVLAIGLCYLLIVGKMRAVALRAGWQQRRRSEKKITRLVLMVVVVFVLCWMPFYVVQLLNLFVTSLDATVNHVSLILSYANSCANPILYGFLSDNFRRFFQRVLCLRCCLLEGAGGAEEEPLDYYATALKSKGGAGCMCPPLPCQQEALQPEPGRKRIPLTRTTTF

Compound: C[C@@H](O)[C@@H]1NC(=O)[C@H](CCCCN)NC(=O)[C@@H](Cc2c[nH]c3ccccc23)NC(=O)[C@H](Cc2ccc(O)cc2)NC(=O)[C@@H](NC(=O)[C@@H](Cc2ccccc2)NC(=O)CN2CCN(CC(=O)O)CCN(CC(=O)O)CCN(CC(=O)O)CC2)CSSC[C@@H](C(=O)N[C@H](CO)[C@@H](C)O)NC1=O [DOTATOC, [DOTA^0, Tyr^3] octreotide]
- bone marrow analysis (hypoplasia, hyperplasia, lesions) [1]: no lesions
- effects on cell viability ([2]; 24 hours, 70 pM and 7 fM, gemcitabine pre-treated and non-treated Capan-2): no significant effects
- effects on the induction of apoptosis ([3]; without radiolabel): minimal effects

Compound: Nc1ccn([C@@H]2O[C@H](CO)[C@@H](O)C2(F)F)c(=O)n1 [gemcitabine, 2′,2′-difluoro-2′-deoxycytidine]
- more binding sites than the non-treated Capan-2 cells [4]: ~70%
- induction of apoptosis by itself [5]: does not induce any significant amount of apoptosis

Compound: C[C@@H](O)[C@@H]1NC(=O)[C@H](CCCCN)NC(=O)[C@@H](Cc2c[nH]c3ccccc23)NC(=O)[C@H](Cc2ccccc2)NC(=O)[C@@H](NC(=O)[C@H](N)Cc2ccccc2)CSSC[C@@H](C(=O)N[C@H](CO)[C@@H](C)O)NC1=O [octreotide, D-Phe-Cys-Phe-D-Trp-Lys-Thr-Cys-Thr-OH]
- affinity for sst2 [6]: high affinity
- affinity for sst4 [7]: very low affinity
- affinity for sst4 ([7]; listed as OCT): little or no affinity
- affinity for sst3 [8]: moderate affinity; also recorded: lower affinity
- affinity for sst1 [9]: very low affinity

Compound: SST-28: somatostatin variant that is a 28 amino acid peptide
- binding to all 5 human SSTR subtypes [10]: high affinity

Compound: O=C([O-])CN1CCN(CC(=O)[O-])CCN(CC(=O)[O-])CCN(CC(=O)[O-])CC1.[177Lu+3].[H+] [^177Lu-DOTA]
- effects of radiosensitivity induced by gemcitabine pre-treatment on cell viability ([2]; 24 hours, higher doses (370 kBq)): can be observed
- effects of radiosensitivity induced by gemcitabine pre-treatment on cell viability ([2]; 48 hours, 370 kBq as well as 37 kBq): observed
- effect on apoptosis, gemcitabine pre-treated vs non-treated Capan-2 [3]: Enhancements of radiation induced apoptosis

Compound: SST-24: somatostatin form bound by all 5 human SSTR subtypes; probably a misprint of somatostatin-14
- binding to all 5 human SSTR subtypes [10]: high affinity

Compound: CC(C)[C@@H]1NC(=O)[C@H](CCCCN)NC(=O)[C@@H](Cc2c[nH]c3ccccc23)NC(=O)[C@H](Cc2ccc(O)cc2)NC(=O)[C@@H](NC(=O)[C@H](N)Cc2ccc3ccccc3c2)CSSC[C@@H](C(=O)N[C@H](C(N)=O)[C@@H](C)O)NC1=O [lanreotide, D-βNal-Cys-Tyr-D-Trp-Lys-Val-Cys-Thr-NH2]
- affinity for sst2 [6]: high affinity
- affinity for sst4 [7]: very low affinity
- affinity for sst4 ([7]; listed as LAN): moderate affinity
- affinity for sst3 [8]: moderate affinity; also recorded: lower affinity
- affinity for sst1 [9]: very low affinity

Compound: CC(C)[C@@H]1NC(=O)[C@H](CCCCN)NC(=O)[C@@H](Cc2c[nH]c3ccccc23)NC(=O)[C@H](Cc2ccc(O)cc2)NC(=O)[C@@H](NC(=O)[C@H](N)Cc2ccccc2)CSSC[C@@H](C(=O)N[C@@H](Cc2c[nH]c3ccccc23)C(N)=O)NC1=O [vapreotide, D-Phe-Cys-Tyr-D-Trp-Lys-Val-Cys-Trp-NH2] (H-[dF]CY[dW]KVCW-NH2; disulfide 2-7)
- affinity for sst2 [6]: high affinity
- affinity for sst4 [7]: moderate affinity
- affinity for sst3 [8]: moderate affinity
- affinity for sst1 [9]: very low affinity
